From ChEMBL document CHEMBL3632505, “Forsythoneosides A-D, Neuroprotective Phenethanoid and Flavone Glycoside Heterodimers from the Fruits of Forsythia suspensa” (2015) come the findings set out here.

In experiment [1] the test system is PC-12. Kind of experiment: Neuroprotective activity against rotenone-induced cell damage in rat PC12 cells assessed as cell viability at 0.1 uM after 48 hrs by MTT assay (reference value: 53.9 +/- 7.1%). The experiment is classed as functional. The settings on record: for viability at 0.1 µM: Rattus norvegicus, PC-12, 48 h, read-out: Activity. (Tetrazolium assays rely on reduction of a dye to a coloured formazan, in cell work by metabolically active cells.)

Experiment [2] concerns PC-12. Kind of experiment: Neuroprotective activity against rotenone-induced cell damage in rat PC12 cells assessed as increase in cell viability after 48 hrs by MTT assay. It is filed as functional, cell-based.
The test system of experiment [3] is PC-12. Kind of experiment: Neuroprotective activity against rotenone-induced cell damage in rat PC12 cells assessed as cell viability at 1 uM after 48 hrs by MTT assay (reference value: 53.9 +/- 7.1%). It is filed as functional. The settings on record: for viability at 1 µM: Rattus norvegicus, PC-12, 48 h, read-out: Activity.
For experiment [4], the system named is PC-12. Kind of experiment: Neuroprotective activity against rotenone-induced cell damage in rat PC12 cells assessed as cell viability at 10 uM after 48 hrs by MTT assay (reference value: 53.9 +/- 7.1%). The experiment is classed as functional. Conditions: for viability at 10 µM: Rattus norvegicus, PC-12, 48 h, read-out: Activity.

Turning to `C[C@@H]1O[C@@H](OC[C@H]2O[C@@H](Oc3c(-c4ccc(O)c(O)c4)oc4c5c(cc(O)c4c3=O)Oc3cc(O)c(O)cc3[C@H]5CO[C@@H]3O[C@H](CO[C@@H]4O[C@@H](C)[C@H](O)[C@@H](O)[C@H]4O)[C@@H](OC(=O)/C=C/c4ccc(O)c(O)c4)[C@H](O)[C@H]3O)[C@H](O)[C@@H](O)[C@@H]2O)[C@H](O)[C@H](O)[C@H]1O`, in the experiment on PC-12 [1], the viability at 0.1 µM was determined as 55.8%. Also, in the experiment with PC-12 [2], the Activity entry was “Dose-dependent effect”. In addition, the viability at 1 µM with PC-12 [3] worked out at 59.2%. Also, in the experiment on PC-12 [4], the viability at 10 µM stood at 81.1%.

For the molecule `C[C@@H]1O[C@@H](OC[C@H]2O[C@@H](Oc3c(-c4ccc(O)c(O)c4)oc4c5c(cc(O)c4c3=O)Oc3cc(O)c(O)cc3[C@@H]5CO[C@@H]3O[C@H](CO[C@@H]4O[C@@H](C)[C@H](O)[C@@H](O)[C@H]4O)[C@@H](OC(=O)/C=C/c4ccc(O)c(O)c4)[C@H](O)[C@H]3O)[C@H](O)[C@@H](O)[C@@H]2O)[C@H](O)[C@H](O)[C@H]1O`, the viability at 0.1 µM in the experiment on PC-12 [1] was 70.1%. The Activity entry in the experiment on PC-12 [2] is “Dose-dependent effect”. Besides, the viability at 1 µM in the experiment on PC-12 [3] was 75%. For the same molecule, the viability at 10 µM with PC-12 [4] was determined as 91.2%.

As to `O=C(/C=C/c1ccc(O)c(O)c1)O[C@H]1[C@H](O)[C@@H](O)[C@H](OCCc2ccc(O)c(O)c2)O[C@@H]1CO[C@@H]1OC[C@@H](O)[C@H](O)[C@H]1O`, the viability at 10 µM with PC-12 [4] turned out to be 56.2%.

As for `C[C@@H]1O[C@@H](OC[C@H]2O[C@@H](Oc3c(-c4ccc(O)c(O)c4)oc4c(-c5cc(O)c(O)cc5CCO[C@@H]5O[C@H](CO[C@@H]6O[C@@H](C)[C@H](O)[C@@H](O)[C@H]6O)[C@@H](OC(=O)/C=C/c6ccc(O)c(O)c6)[C@H](O)[C@H]5O)c(O)cc(O)c4c3=O)[C@H](O)[C@@H](O)[C@@H]2O)[C@H](O)[C@H](O)[C@H]1O` (stereo in doubt; 3) [listing 1 of 2 here], the viability at 0.1 µM in the experiment on PC-12 [1] came out at 54.3%. In addition, in the experiment with PC-12 [3], the viability at 1 µM was 64%. Besides, the Activity in the experiment on PC-12 [4] is 93.2%.

For `C[C@@H]1O[C@@H](OC[C@H]2O[C@@H](Oc3c(-c4ccc(O)c(O)c4)oc4c(-c5cc(O)c(O)cc5CCO[C@@H]5O[C@H](CO[C@@H]6O[C@@H](C)[C@H](O)[C@@H](O)[C@H]6O)[C@@H](OC(=O)/C=C/c6ccc(O)c(O)c6)[C@H](O)[C@H]5O)c(O)cc(O)c4c3=O)[C@H](O)[C@@H](O)[C@@H]2O)[C@H](O)[C@H](O)[C@H]1O` (stereo in doubt; 3) [listing 2 of 2 here], in the experiment on PC-12 [2], the Activity result was “Dose-dependent effect”.

On to `C[C@@H]1O[C@@H](OC[C@H]2O[C@@H](Oc3c(-c4ccc(O)c(O)c4)oc4c(-c5cc(O)c(O)cc5CCO[C@@H]5O[C@H](CO[C@@H]6O[C@@H](C)[C@H](O)[C@@H](O)[C@H]6O)[C@@H](OC(=O)/C=C/c6ccc(O)c(O)c6)[C@H](O)[C@H]5O)c(O)cc(O)c4c3=O)[C@H](O)[C@@H](O)[C@@H]2O)[C@H](O)[C@H](O)[C@H]1O` (stereo in doubt; 4) [listing 1 of 2 here], for which the figures for the Activity in the experiment on PC-12 [1] and in the experiment with PC-12 [3] were 67.9% and 75.5%, respectively. For the same molecule, in the experiment on PC-12 [4], the viability at 10 µM came out at 96.2%.

Take `C[C@@H]1O[C@@H](OC[C@H]2O[C@@H](Oc3c(-c4ccc(O)c(O)c4)oc4c(-c5cc(O)c(O)cc5CCO[C@@H]5O[C@H](CO[C@@H]6O[C@@H](C)[C@H](O)[C@@H](O)[C@H]6O)[C@@H](OC(=O)/C=C/c6ccc(O)c(O)c6)[C@H](O)[C@H]5O)c(O)cc(O)c4c3=O)[C@H](O)[C@@H](O)[C@@H]2O)[C@H](O)[C@H](O)[C@H]1O` (stereo in doubt; 4) [listing 2 of 2 here]: the Activity entry in the experiment with PC-12 [2] was “Dose-dependent effect”.

Turning to `C[C@@H]1O[C@@H](OC[C@H]2O[C@@H](OCCc3ccc(O)c(O)c3)[C@H](O)[C@@H](O)[C@@H]2OC(=O)/C=C/c2ccc(O)c(O)c2)[C@H](O)[C@H](O)[C@H]1O` [FORSYTHIASIDE], in the experiment with PC-12 [4], the viability at 10 µM came to 60.4%.

With `C[C@@H]1O[C@@H](OC[C@H]2O[C@@H](Oc3c(-c4ccc(O)c(O)c4)oc4cc(O)cc(O)c4c3=O)[C@H](O)[C@@H](O)[C@@H]2O)[C@H](O)[C@H](O)[C@H]1O` [RUTIN], in the experiment on PC-12 [4], the viability at 10 µM was 67.9%.

`COC1=C(OC)C(=O)C(C/C=C(\C)CC/C=C(\C)CC/C=C(\C)CC/C=C(\C)CC/C=C(\C)CC/C=C(\C)CC/C=C(\C)CC/C=C(\C)CC/C=C(\C)CCC=C(C)C)=C(C)C1=O` [UBIDECARENONE]: in the experiment on PC-12 [4], the viability at 10 µM stood at 59%.
